Source: patent US8288550B2, “Crystalline form of a benzimidazole-carboxamide medicinal compound” (Theravance, Inc., priority 2005, dated 2012)

How the values were obtained:
[1] = Stability to milling of particles; format: physicochemical; settings: milled from mean particle size about 470 microns to about 15, 22 or 29 microns
[2] = Solid state stability assessment (40° C. and 75% RH); format: physicochemical; settings: three months, open glass vials
Procedure: Solid State Stability Assessment
Samples of the crystalline compound of Form I, prepared according to the process of Example 3, were stored in multiple open glass vials at 40° C. and 75% RH. At specific intervals, the contents of a representative vial was removed and analyzed by DSC, TGA, PXRD, and by HPLC for chemical purity.

[3] = Thermal gravimetric analysis (TGA); format: physicochemical; settings: heating rate 10° C./min
Procedure: Thermogravimetric analysis (TGA) was performed using a TA Instruments Model Q-500 module. Data were collected and analyzed using TA Instruments Thermal Advantage for Q Series™ software. A sample weighing about 2 mg was placed in an aluminum pan on a platinum cradle and scanned from ambient temperature to about 300° C. with a linear heating rate of 10° C./min. The balance and furnace chambers were purged with nitrogen during use.

[4] = Dynamic moisture sorption assessment; format: physicochemical
Procedure: Dynamic Moisture Sorption Assessment
Dynamic moisture sorption (DMS) assessment was performed at 25° C. using a VTI atmospheric microbalance, SGA-100 system (VTI Corp., Hialeah, Fla. 33016). A sample size of approximately 5-10 mg was used and the humidity was set at the ambient value at the start of the analysis. A typical DMS analysis consisted of three scans: ambient to 2% relative humidity (RH), 2% RH to 90% RH, 90% RH to 5% RH at a scan rate of 5% RH/step. The mass was measured every two minutes and the RH was changed to the next value (±5% RH) when the mass of the sample was stable to within 0.02% for 5 consecutive points.

[5] = test system: Caco-2 cell monolayer; settings: human, Caco-2, 1 h
Procedure: In Vitro Model of Oral Bioavailability: Caco-2 Permeation Assay
The Caco-2 permeation assay was performed to model the ability of test compounds to pass through the intestine and get into the blood stream after oral administration. The rate at which test compounds in solution permeate a cell monolayer designed to mimic the tight junction of human small intestinal monolayers was determined.
Caco-2 (colon, adenocarcinoma; human) cells were obtained from ATCC (American Type Culture Collection; Rockville, Md.). For the permeation study, cells were seeded at a density of 63,000 cells/cm^2 on pre-wetted transwells polycarbonate filters (Costar; Cambridge, Mass.). A cell monolayer was formed after 21 days in culture. Following cell culture in the transwell plate, the membrane containing the cell monolayer was detached from the transwell plate and inserted into the diffusion chamber (Costar; Cambridge, Mass.). The diffusion chamber was inserted into the heating block which was equipped with circulating external, thermostatically regulated 37° C. water for temperature control. […]
The permeation study was performed with test compound concentrations at 100 μM and with ^14C-mannitol to monitor the integrity of the monolayer. […] Samples were analyzed by HPLC or liquid scintillation counting for test compound and mannitol concentrations. The permeation coefficient (Kp) in cm/sec was calculated.

## COC(=O)N1CCC(CN2CCC(CNC(=O)c3cccc4[nH]c(C(C)C)nc34)CC2)CC1 [Form I, 4-(4-{[(2-isopropyl-1H-benzoimidazole-4-carbonyl)amino]methyl}-piperidin-1-ylmethyl)piperidine-1-carboxylic acid methyl ester]
[1]
  changes by DSC, TGA or PXRD after milling: no changes detectable
[2]
  change in DSC, TGA, PXRD after storage: no detectable changes
[3]
  onset of degradation (TGA): above 240 °C
[4]; 2% to 90% RH, 25° C./room temperature
  weight change (moisture sorption): less than 0.25%
[4]; critical humidity range of 40% to 75% RH
  weight change (moisture sorption): less than 0.1%

## COC(=O)N1CCC(CN2CCC(CNC(=O)c3cccc4[nH]c(C(C)C)nc34)CC2)CC1 [compound of the invention, 4-(4-{[(2-isopropyl-1H-benzoimidazole-4-carbonyl)amino]methyl}-piperidin-1-ylmethyl)piperidine-1-carboxylic acid methyl ester]
[5]
  permeation coefficient Kp: greater than 50×10^−6 cm/sec
